Calls of active or inactive are those of the source. The rule behind the calls is not given here.
What was measured:
COLO 201 = assay: Antiproliferative activity against human COLO201 cells assessed as inhibition of cell viability for 96 hrs by cell titre glo luminescence assay; assay type: functional, cell-based; details: COLO 201, 96 h
COLO 205 = assay: Antiproliferative activity against human COLO205 cells assessed as inhibition of cell viability for 96 hrs by cell titre glo luminescence assay; assay type: functional, cell-based; details: COLO 205, 96 h
HCT-116 = assay: Antiproliferative activity against human HCT-116 cells assessed as inhibition of cell viability for 96 hrs by cell titre glo luminescence assay; assay type: functional, cell-based; details: HCT-116, 96 h
HT-29 = assay: Antiproliferative activity against human HT-29 cells assessed as inhibition of cell viability for 96 hrs by cell titre glo luminescence assay; assay type: functional, cell-based; details: HT-29, 96 h
KURAMOCHI = assay: Antiproliferative activity against human KURAMOCHI cells assessed as inhibition of cell viability for 96 hrs by cell titre glo luminescence assay; assay type: functional, cell-based
OVCAR-3 = assay: Antiproliferative activity against human OVCAR-3 cells assessed as inhibition of cell viability for 96 hrs by cell titre glo luminescence assay; assay type: functional, cell-based; details: OVCAR-3, 96 h
OVCAR-5 = assay: Antiproliferative activity against human OVCAR-5 cells assessed as inhibition of cell viability for 96 hrs by cell titre glo luminescence assay; assay type: functional, cell-based; details: OVCAR-5, 96 h
SK-OV-3 = assay: Antiproliferative activity against human SK-OV-3 cells assessed as inhibition of cell viability for 96 hrs by cell titre glo luminescence assay; assay type: functional, cell-based; details: SK-OV-3, 96 h
MDA-MB-231 = assay: Antiproliferative activity against human MDA-MB-231 cells assessed as inhibition of cell viability for 96 hrs by cell titre glo luminescence assay; assay type: functional, cell-based; details: MDA-MB-231, 96 h
Monoglyceride lipase [1] = target: T1, Monoglyceride lipase (Homo sapiens, UniProt Q99685)
T1 sequence (Q99685 whole entry): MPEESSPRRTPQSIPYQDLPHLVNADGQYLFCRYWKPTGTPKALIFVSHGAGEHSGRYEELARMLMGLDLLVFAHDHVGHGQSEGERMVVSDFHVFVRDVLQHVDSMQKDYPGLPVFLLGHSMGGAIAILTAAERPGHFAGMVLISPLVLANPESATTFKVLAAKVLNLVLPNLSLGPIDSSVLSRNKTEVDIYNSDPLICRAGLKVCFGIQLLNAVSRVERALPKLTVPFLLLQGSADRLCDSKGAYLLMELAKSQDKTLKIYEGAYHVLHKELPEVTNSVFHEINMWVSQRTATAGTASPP
Description: Inhibition of human recombinant MAGL using 4-NPA as substrate by microplate reader method

Monoglyceride lipase [2] = target: T1, Monoglyceride lipase; remark: listed apart in the source
Description: Inhibition of human recombinant MAGL assessed as dissociation constant using 4-NPA as substrate

[3] = target: T2, Monoglyceride lipase (Homo sapiens) (UniProt Q99685); details: dose 320.0 nM, time 60.0 min
T2 sequence (whole entry): T1 sequence (Q99685 whole entry)

[4] = target: T2, Monoglyceride lipase (Homo sapiens); details: dose 8.0 nM, time 60.0 min

IC50 (COLO 201)	IC50 (COLO 205)	IC50 (HCT-116)	IC50 (HT-29)	IC50 (OVCAR-3)	IC50 (OVCAR-5)	IC50 (SK-OV-3)	IC50 (MDA-MB-231)	IC50 (Monoglyceride lipase [1])	Ki (Monoglyceride lipase [2])	inhibition [3]	inhibition [4]	SMILES	IC50 (KURAMOCHI)
83 µM	79 µM	86 µM	6.9 µM	93 µM	10 µM	84 µM	71 µM					O=C(c1ccc(Cl)cc1)C1CCN(C(=O)c2cccc(O)c2)CC1	75 µM
8.7 µM	8.7 µM	7.6 µM	9 µM	12 µM	3.7 µM	8.8 µM	2.7 µM	0.0015 µM	0.00114 µM	Active	Active	O=C(c1ccc(Sc2cccc(Cl)c2)cc1)C1CCN(C(=O)c2cc(O)ccc2F)CC1	7 µM
3.3 µM	2.2 µM	3.4 µM	2.5 µM	8.6 µM	0.78 µM	4.4 µM	10 µM	0.00186 µM	0.00112 µM	Active	Active	O=C(c1ccc(Sc2cccc(OC(F)(F)F)c2)cc1)C1CCN(C(=O)c2cc(O)ccc2F)CC1	3.7 µM
2.9 µM	3.3 µM	3.3 µM	8.4 µM	5.7 µM	0.32 µM	4.4 µM	5.4 µM					O=C(c1ccc(Sc2cccc(C(F)(F)F)c2)cc1)C1CCN(C(=O)c2cc(O)ccc2F)CC1	3.3 µM

— ChEMBL document CHEMBL4831497, “Monoacylglycerol lipase (MAGL) inhibitors based on a diphenylsulfide-benzoylpiperidine scaffold” (Eur J Med Chem, 2021)
